From US20070128217A1 (priority 2003, published 2007)

B1: SC03-006 (scFv)
scFv: SMAEVQLVESGGGLVQPGGSLRLSCAASGFTFSGYPMHWVRQAPGKGLEWVAVISYDGSNKYYADSVKGRFTISRDNSKNTLYLQMNSLRAEDTAVYYCAKDGSPRTPSFDYWGQGTLVTVLEGTGGSGGTGSGTGTSELDIQMTQSPHSLSASVGDRVTITCRASQGISNYLAWYQQKPGKVPKLLIYAASTLQSGVPSRFSGSGSGTDFTLTISSLQPEDVGVYYCQQRFRTPVTFGQGTKLEIKRAAA
B2: SC03-015 (scFv)
scFv: AMAEVQLVESGGGVVRPGGSLRLSCAASGFTFDDYGMSWVRQAPGKGLEWVSGINWNGGSTGYADSVKGRFTISRDNAKNSLYLQMNSLRAEDTAVYYCARGLSLRPWGQGTLVTVSRGGGGSGGGGSGGGGSSELTQDPAVSVALGQTVRITCQGDSLRSYYASWYQQKPGQAPVLVIYGKNNRPSGIPDRFSGSSSGNTASLTITGAQAEDEADYYCNSRDSSGNHVVFGGGTKLTVLGAAA

Legend:
[1] = tested on: antibodies in sera from SARS patients (sera 1a, 1b, 2, 6, 37, 62, London, SARS-yellow, SARS-green); assay type: binding, human; set-up: Binding of serum 6 to linear peptides of protein X1 of SARS-CoV Urbani / Binding of serum 37 to linear peptides of protein X1 of SARS-CoV Urbani / Binding of serum 6 to looped/cyclic peptide (PEPSCAN-ELISA) / Binding of serum 37 to looped/cyclic peptide (PEPSCAN-ELISA) / Binding of serum 37 to looped/cyclic peptides of protein X1 of SARS-CoV Urbani / Binding of serum 6 to linear peptides of protein X2 / Binding of serum 37 to linear peptides of protein X2 / Binding of serum 37 to looped/cyclic peptides of protein X2 of SARS-CoV Urbani / Binding of serum 6 to linear peptides of protein M of SARS-CoV Urbani / Binding of serum 37 to linear peptides of protein M of SARS-CoV Urbani / Binding of serum 6 to looped/cyclic peptides of protein M of SARS-CoV Urbani / Binding of serum 37 to looped/cyclic peptides of protein M of SARS-CoV Urbani / Binding of serum 6 to linear peptides of protein X3 of SARS-CoV Urbani / Binding of serum 37 to linear peptides of protein X3 of SARS-CoV Urbani / Binding of serum 37 to looped/cyclic peptides of protein X3 of SARS-CoV Urbani / Binding of serum 6 to linear peptides of protein X4 of SARS-CoV Urbani / Binding of serum 37 to linear peptides of protein X4 of SARS-CoV Urbani / Binding of serum 37 to looped/cyclic peptides of protein X4 of SARS-CoV Urbani / Binding of serum 6 to linear peptides of protein X5 of SARS-CoV Urbani / Binding of serum 37 to linear peptides of protein X5 of SARS-CoV Urbani / Binding of serum 37 to looped/cyclic peptides of protein X5 of SARS-CoV Urbani / Binding of serum 6 to linear peptides of protein N of SARS-CoV Urbani / Binding of serum 37 to linear peptides of protein N of SARS-CoV Urbani / Binding of serum 6 to linear peptide (PEPSCAN-ELISA) / Binding of serum 1a to looped/cyclic peptides of protein N of SARS-CoV Urbani / Binding of serum 1b to looped/cyclic peptides of protein N of SARS-CoV Urbani / Binding of serum 2 to looped/cyclic peptides of protein N of SARS-CoV Urbani / Binding of serum 6 to looped/cyclic peptides of protein N of SARS-CoV Urbani / Binding of serum 37 to looped/cyclic peptides of protein N of SARS-CoV Urbani / Binding of serum 62 to looped/cyclic peptides of protein N of SARS-CoV Urbani / Binding of serum London to looped/cyclic peptides of protein N of SARS-CoV Urbani / Binding of serum SARS-green to looped/cyclic peptides of protein N of SARS-CoV Urbani: unit not given here
[2] = tested on: control sera (pooled serum of ten healthy LUMC hospital workers; commercial negative donor pooled serum from the Dutch bloodbank); assay type: binding, human; set-up: Binding of Control serum LUMC to linear peptides / Binding of Control serum Blood-bank to linear peptides / Binding of Control serum LUMC to looped peptides / Binding of Control Serum Blood-Bank to Looped peptides / Binding of Control serum LUMC to linear peptides of the protein M of SARS-CoV Urbani / Binding of Control serum Blood-bank to linear peptides of the protein M of SARS-CoV Urbani / Binding of Control serum LUMC to looped peptides of the protein M of SARS-CoV Urbani / Binding of Control Serum Blood-Bank to Looped peptides of the protein M of SARS-CoV Urbani: unit not given here
[3] = tested on: rabbit serum obtained by immunizing a rabbit with the SARS-CoV strain Frankfurt 1; assay type: binding; set-up: Binding of a rabbit serum to linear peptides / Binding of a rabbit serum to looped peptides / Rabbit serum linear peptides / Rabbit serum looped peptides / Binding of a rabbit serum to linear peptides of protein N of SARS-CoV Urbani (Rabbit serum linear peptides) / Binding of a rabbit serum to looped/cyclic peptides of protein N of SARS-CoV Urbani (Rabbit serum looped peptides): unit not given here
[4] = tested on: recombinant human anti-SARS-CoV antibody 03-018; assay type: binding; set-up: Binding of antibody 03-018 to linear peptides of the N protein of SARS-CoV Urbani / Binding of antibody 03-018 to looped/cyclic peptides of the N protein of SARS-CoV Urbani: unit not given here
[5] = biological target: SARS-CoV preparation (Frankfurt 1 strain) (SARS-CoV strain Frankfurt 1)

Row | Molecule | Binding of serum 1a to linear peptides of protein N of SARS-CoV Urbani [1] | Binding of serum 1a to looped/cyclic peptides of protein N of SARS-CoV Urbani [1] | Binding of serum 1b to linear peptides of protein N of SARS-CoV Urbani [1] | Binding of serum 1b to looped/cyclic peptides of protein N of SARS-CoV Urbani [1] | Binding of serum 2 to linear peptides of protein N of SARS-CoV Urbani [1] | Binding of serum 2 to looped/cyclic peptides of protein N of SARS-CoV Urbani [1] | Binding of serum 6 to linear peptides of protein N of SARS-CoV Urbani [1] | Binding of serum 6 to looped/cyclic peptides of protein N of SARS-CoV Urbani [1] | Binding of serum 37 to linear peptides of protein N of SARS-CoV Urbani [1] | Binding of serum 37 to looped/cyclic peptides of protein N of SARS-CoV Urbani [1] | Binding of serum 62 to linear peptides of protein N of SARS-CoV Urbani [1] | Binding of serum 62 to looped/cyclic peptides of protein N of SARS-CoV Urbani [1] | Binding of serum London to linear peptides of protein N of SARS-CoV Urbani [1] | Binding of serum London to looped/cyclic peptides of protein N of SARS-CoV Urbani [1] | Binding of serum SARS-green to linear peptides of protein N of SARS-CoV Urbani [1] | Binding of serum SARS-green to looped/cyclic peptides of protein N of SARS-CoV Urbani [1] | Binding of serum SARS-yellow to linear peptides of protein N of SARS-CoV Urbani [1] | Binding of serum SARS-yellow to looped/cyclic peptides of protein N of SARS-CoV Urbani [1] | Binding of antibody 03-018 to linear peptides of the N protein of SARS-CoV Urbani [4] | Binding of antibody 03-018 to looped/cyclic peptides of the N protein of SARS-CoV Urbani [4] | also measured
1 | YKHWPQIAQFAPSAS | 0.3 | 0.5 | 0.1 | 0.3 | 0.2 | 0.5 | 0.2 | 0.3 | 0.8 | 0.7 | 0.7 | 0.7 | 0.6 | 0.5 | 0.4 | 0.4 | 0.7 | 0.6 | 0.1 | 0.2 | Control Serum Blood-Bank Looped peptides [2]: 0.8; Control serum Blood-bank linear peptides [2]: 0.9; Control serum LUMC linear peptides [2]: 0.7; Control serum LUMC looped peptides [2]: 0.8; Binding of a rabbit serum to linear peptides of protein N of SARS-CoV Urbani (Rabbit serum linear peptides) [3]: 0.1; Binding of a rabbit serum to looped/cyclic peptides of protein N of SARS-CoV Urbani (Rabbit serum looped peptides) [3]: 0.5
2 | YNVTQAFGRRGPEQT |  | 0.3 |  | 0.2 |  | 0.3 |  | 0.1 |  | 0.5 |  | 0.3 |  | 0.3 |  | 0.2 |  | 0.3 | 0.1 | 0.2 | Binding of serum 1a to linear peptide (PEPSCAN-ELISA) [1]: 0.3; Binding of serum 1b to linear peptide (PEPSCAN-ELISA) [1]: 0.1; Binding of serum 2 to linear peptide (PEPSCAN-ELISA) [1]: 0.2; Binding of serum 6 to linear peptide (PEPSCAN-ELISA) [1]: 0.2; Binding of serum 37 to linear peptide (PEPSCAN-ELISA) [1]: 0.7; Binding of serum 62 to linear peptide (PEPSCAN-ELISA) [1]: 0.7; Binding of serum London to linear peptide (PEPSCAN-ELISA) [1]: 0.5; Binding of serum SARS-green to linear peptide (PEPSCAN-ELISA) [1]: 0.6; Binding of serum SARS-yellow to linear peptide (PEPSCAN-ELISA) [1]: 0.6; Binding of Control Serum Blood-Bank to Looped peptides [2]: 0.5; Binding of Control serum Blood-bank to linear peptides [2]: 0.7; Binding of Control serum LUMC to linear peptides [2]: 0.6; Binding of Control serum LUMC to looped peptides [2]: 0.5; Recognition of the peptide by the rabbit serum [3]: recognized
3 | YRRATRRVRGGDGKM | 0.3 | 0.2 | 0.1 | 0.1 | 0.3 | 0.2 | 0.3 | 0.1 | 0.8 | 0.4 | 0.7 | 0.3 | 0.5 | 0.3 | 0.4 | 0.2 | 0.6 | 0.1 | 0.1 | 0.2 | Binding of Control Serum Blood-Bank to Looped peptides [2]: 0.4; Binding of Control serum Blood-bank to linear peptides [2]: 0.8; Binding of Control serum LUMC to linear peptides [2]: 0.7; Binding of Control serum LUMC to looped peptides [2]: 0.3; Binding of a rabbit serum to linear peptides of protein N of SARS-CoV Urbani (Rabbit serum linear peptides) [3]: 0.2; Binding of a rabbit serum to looped/cyclic peptides of protein N of SARS-CoV Urbani (Rabbit serum looped peptides) [3]: 0.0
4 | B1 |  |  |  |  |  |  |  |  |  |  |  |  |  |  |  |  |  |  |  |  | OD492nm [5]: 1.06 OD492nm
5 | B2 |  |  |  |  |  |  |  |  |  |  |  |  |  |  |  |  |  |  |  |  | OD492nm [5]: 0.796 OD492nm
